Literature values as cited in PMC6318274, “Lattice engineering enables definition of molecular features allowing for potent small-molecule inhibition of HIV-1 entry” (Nature Communications, 2019).
Read-outs that look alike come from different tables or passages of the source.

Tested on: HIV-1 Env-pseudoviruses (208-strain panel)
Settings: cited from earlier work

Structure (SMILES): COc1cnc(-n2cnc(C)n2)c2[nH]cc(C(=O)C(=O)N3CCN(C(=O)c4ccccc4)CC3)c12 [BMS-626529]
- IC50 (45_01dG5, clade B, read-out: IC50): 0.4 nM
- IC50 (0077.v1.c16, clade C, read-out: IC50): 2 nM
- IC50 (89.6.DG, clade B, read-out: IC50): 2 nM
- IC50 (96ZM651.02, clade C, read-out: IC50): 4 nM
- IC50 (208-strain panel, read-out: Geometric mean IC50): 15.9 nM
- IC50 (208-strain panel, read-out: Median IC50): 9 nM
- IC50 (235-47, clade AG, read-out: IC50): 1 nM
- IC50 (242-14, clade AG, read-out: IC50): 23 nM
- IC50 (246-F3.C10.2, clade AC, read-out: IC50): 200 nM
- IC50 (247-23, clade D, read-out: IC50): 11 nM
- IC50 (0260.v5.c36, clade A, read-out: IC50): 29 nM
- IC50 (263-8, clade AG, read-out: IC50): 2 nM
- IC50 (269-12, clade AG, read-out: IC50): 15100 nM
- IC50 (271-11, clade AG, read-out: IC50): > 20000 nM
- IC50 (286.36, clade C, read-out: IC50): 1 nM
- IC50 (288.38, clade C, read-out: IC50): 3 nM
- IC50 (0330.v4.c3, clade A, read-out: IC50): 98 nM
- IC50 (398-F1.F6.20, clade A, read-out: IC50): 372 nM
- IC50 (426c, clade C, read-out: IC50): 30 nM
- IC50 (0439.v5.c1, clade A, read-out: IC50): 9 nM
- IC50 (0815.v3.c3, clade ACD, read-out: IC50): 2 nM
- IC50 (00836-2.5, clade C, read-out: IC50): > 20000 nM
- IC50 (0921.v2.c14, clade C, read-out: IC50): 0.9 nM
- IC50 (928-28, clade AG, read-out: IC50): 2080 nM
- IC50 (001428-2.42, clade C, read-out: IC50): 49 nM
- IC50 (3016.v5.c45, clade D, read-out: IC50): 0.5 nM
- IC50 (3168.v4.c10, clade C, read-out: IC50): 1 nM
- IC50 (3301.v1.c24, clade AC, read-out: IC50): 15 nM
- IC50 (3326.v4.c3, clade CD, read-out: IC50): 0.3 nM
- IC50 (3337.v2.c6, clade CD, read-out: IC50): 1 nM
- IC50 (3365.v2.c20, clade A, read-out: IC50): 1920 nM
- IC50 (3415.v1.c1, clade A, read-out: IC50): 5 nM
- IC50 (3468.v1.c12, clade AD, read-out: IC50): 7 nM
- IC50 (3589.v1.c4, clade AC, read-out: IC50): 1 nM
- IC50 (3637.v5.c3, clade C, read-out: IC50): 1 nM
- IC50 (3718.v3.c11, clade A, read-out: IC50): 10 nM
- IC50 (3817.v2.c59, clade CD, read-out: IC50): 48 nM
- IC50 (3873.v1.c24, clade C, read-out: IC50): 0.6 nM
- IC50 (3988.25, clade B, read-out: IC50): 1 nM
- IC50 (5768.04, clade B, read-out: IC50): 3 nM
- IC50 (6095.v1.c10, clade ACD, read-out: IC50): 1 nM
- IC50 (6101.10, clade B, read-out: IC50): 1 nM
- IC50 (6322.v4.c1, clade C, read-out: IC50): 91 nM
- IC50 (6405.v4.c34, clade D, read-out: IC50): 2470 nM
- IC50 (6471.v1.c16, clade C, read-out: IC50): 2 nM
- IC50 (6535.3, clade B, read-out: IC50): 0.3 nM
- IC50 (6540.v4.c1, clade AC, read-out: IC50): 41 nM
- IC50 (6545.v4.c1, clade AC, read-out: IC50): 32 nM
- IC50 (6631.v3.c10, clade C, read-out: IC50): 3 nM
- IC50 (6644.v2.c33, clade C, read-out: IC50): 71 nM
- IC50 (6785.v5.c14, clade C, read-out: IC50): 292 nM
- IC50 (6838.v1.c35, clade C, read-out: IC50): 19 nM
- IC50 (7165.18, clade B, read-out: IC50): 29 nM
- IC50 (0013095-2.11, clade C, read-out: IC50): 5 nM
- IC50 (16055-2.3, clade C, read-out: IC50): 3 nM
- IC50 (16845-2.22, clade C, read-out: IC50): 1 nM
- IC50 (16936-2.21, clade C, read-out: IC50): 6 nM
- IC50 (25710-2.43, clade C, read-out: IC50): 2 nM
- IC50 (25711-2.4, clade C, read-out: IC50): 13 nM
- IC50 (25925-2.22, clade C, read-out: IC50): 2 nM
- IC50 (26191-2.48, clade C, read-out: IC50): 2 nM
- IC50 (57128.vrc15, clade D, read-out: IC50): 6 nM
- IC50 (191821.E6.1, clade D, read-out: IC50): 0.8 nM
- IC50 (231965.c01, clade D, read-out: IC50): 1 nM
- IC50 (620345.c1, clade AE, read-out: IC50): 4130 nM
- IC50 (A07412M1.vrc12, clade D, read-out: IC50): 8 nM
- IC50 (AC10.29, clade B, read-out: IC50): 3 nM
- IC50 (ADA.DG, clade B, read-out: IC50): 3 nM
- IC50 (BB201.B42, clade A, read-out: IC50): 242 nM
- IC50 (BB539.2B13, clade A, read-out: IC50): 7 nM
- IC50 (BG1168.01, clade B, read-out: IC50): 13 nM
- IC50 (BI369.9A, clade A, read-out: IC50): 6 nM
- IC50 (BJOX002000.03.2, clade BC, read-out: IC50): 5 nM
- IC50 (BJOX009000.02.4, clade AE, read-out: IC50): 5130 nM
- IC50 (BJOX010000.06.2, clade AE, read-out: IC50): > 20000 nM
- IC50 (BJOX025000.01.1, clade AE, read-out: IC50): > 20000 nM
- IC50 (BJOX028000.10.3, clade AE, read-out: IC50): > 20000 nM
- IC50 (BL01.DG, clade B, read-out: IC50): > 20000 nM
- IC50 (BR07.DG, clade B, read-out: IC50): 786 nM
- IC50 (BR025.9, clade C, read-out: IC50): > 20000 nM
- IC50 (BS208.B1, clade A, read-out: IC50): 17 nM
- IC50 (BX08.16, clade B, read-out: IC50): 2 nM
- IC50 (BaL.26, clade B, read-out: IC50): 0.8 nM
- IC50 (Bal.01, clade B, read-out: IC50): 1 nM
- IC50 (C1080.c3, clade AE, read-out: IC50): > 20000 nM
- IC50 (C2101.c1, clade AE, read-out: IC50): > 20000 nM
- IC50 (C3347.c11, clade AE, read-out: IC50): 18100 nM
- IC50 (C4118.09, clade AE, read-out: IC50): 4040 nM
- IC50 (CAAN.A2, clade B, read-out: IC50): 1 nM
- IC50 (CAP45.G3, clade C, read-out: IC50): 32 nM
- IC50 (CAP210.E8, clade C, read-out: IC50): 77 nM
- IC50 (CAP244.D3, clade C, read-out: IC50): 7 nM
- IC50 (CE703010217.B6, clade C, read-out: IC50): 2 nM
- IC50 (CH038.12, clade BC, read-out: IC50): 329 nM
- IC50 (CH070.1, clade BC, read-out: IC50): 23 nM
- IC50 (CH117.4, clade BC, read-out: IC50): 26 nM
- IC50 (CH119.10, clade BC, read-out: IC50): 4 nM
- IC50 (CH181.12, clade BC, read-out: IC50): 1 nM
- IC50 (CM244.ec1, clade AE, read-out: IC50): > 20000 nM
- IC50 (CNE3, clade AE, read-out: IC50): 8520 nM
- IC50 (CNE4, clade B, read-out: IC50): > 20000 nM
- IC50 (CNE5, clade AE, read-out: IC50): 12700 nM
- IC50 (CNE7, clade BC, read-out: IC50): 13 nM
- IC50 (CNE8, clade AE, read-out: IC50): > 20000 nM
- IC50 (CNE10, clade B, read-out: IC50): 0.5 nM
- IC50 (CNE12, clade B, read-out: IC50): 1 nM
- IC50 (CNE14, clade B, read-out: IC50): 230 nM
- IC50 (CNE15, clade BC, read-out: IC50): 0.9 nM
- IC50 (CNE19, clade BC, read-out: IC50): 2 nM
